The results in this text go back to patent publication US8436043B2 (Takeda Pharmaceutical Company Limited, priority 2008, dated 2013).

For the first assay, the target named is T1, human glucagon receptor (Homo sapiens, UniProt P47871).
T1 construct: made in house; host or cells: FreeStyle CHO cells, transient transfection with pMSRαneo/hGCGR; membrane fraction (35,000 rpm pellet)
T1 sequence (P47871 26-477): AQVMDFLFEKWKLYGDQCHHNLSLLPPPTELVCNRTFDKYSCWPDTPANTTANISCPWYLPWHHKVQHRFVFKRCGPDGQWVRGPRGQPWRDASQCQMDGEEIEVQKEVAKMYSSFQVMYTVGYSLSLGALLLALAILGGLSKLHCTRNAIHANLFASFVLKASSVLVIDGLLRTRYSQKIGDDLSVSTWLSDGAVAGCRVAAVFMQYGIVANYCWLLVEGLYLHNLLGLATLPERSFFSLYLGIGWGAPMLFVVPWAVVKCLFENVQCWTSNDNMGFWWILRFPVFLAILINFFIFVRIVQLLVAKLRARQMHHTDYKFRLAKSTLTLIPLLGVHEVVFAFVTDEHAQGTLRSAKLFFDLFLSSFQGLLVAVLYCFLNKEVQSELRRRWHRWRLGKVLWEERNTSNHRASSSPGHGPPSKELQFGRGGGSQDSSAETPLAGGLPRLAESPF
The experiment in a line: Glucagon binding inhibitory activity ([125I]-glucagon binding to glucagon receptor membrane protein). To be noted: human glucagon receptor membrane protein, [125I]-glucagon, 90 min room temperature. How it is done:
The glucagon binding inhibitory action of the compound of the present invention was evaluated by the following method.
(1) Cloning of Human Glucagon Receptor Gene
Human glucagon receptor gene was cloned by PCR reaction using human pancreas Marathon-ready cDNA (Clontech) as a template and the following primer set.
PCR reaction was performed using Advantage 2 polymerase (Clontech) and according to the attached protocol. The obtained PCR product was electrophoresed on an agarose gel (1%). An about 1.4 kb of DNA fragment containing a glucagon receptor gene was recovered from the gel and digested with restriction enzymes EcoRI and NotI. DNA treated with the restriction enzymes was electrophoresed on an agarose gel (1%). An about 1.4 kb of DNA fragment was recovered and ligated to plasmid pMSRαneo digested with restriction enzymes EcoRI and NotI to construct a human-type glucagon receptor expression plasmid DNA “pMSRαneo/hGCGR”.
(2) Preparation of Glucagon Receptor Membrane Protein
A human-type glucagon receptor was expressed using FreeStyle CHO Expression System (Invitrogen). A transient expression in FreeStyle CHO cell was performed using a human-type glucagon receptor expression plasmid DNA “pMSRαneo/hGCGR” and according to the manual attached to the FreeStyle CHO Expression System. The above-mentioned DNA was transfected and the cultured with shaking for 2 days (37° C., 8% CO2, 125 rpm). 2400 ml of culture medium was centrifuged at 2,000 rpm for 10 min and the cells were collected. The collected cells were washed with PBS, suspended in homogenate buffer [10 mM NaHCO3 (pH 7.4), 1 mM EDTA, Complete EDTA-free (Roche, 1 tablet/50 ml)] and disrupted by polytron cell disrupter (Kinematica AG). Disruption solution was centrifuged at 2,000 rpm for 10 min and the supernatant was collected.
(3) Measurement of Glucagon Binding Inhibitory Activity
The plate was stood for 90 min at room temperature. The reaction solution was transferred from the reaction plate to a 96 well unifilter GF/C plate (Perkin Elmer Inc.) using a cell harvester (Perkin Elmer Inc.) and the membrane fraction was collected on the filter by suction. The filter was presoaked in 2 mg/ml of polyethyleneimine to prevent non-specific adsorption of labeled ligand. The filter was washed 4 times with a reaction buffer and dried for 2 hr at 42° C. To each well was added 25 μl of scintillator (MicroScint0; Perkin Elmer Inc.), and the fluorescence amount was measured using a microplate scintillation counter (TopCount NXT™; Perkin Elmer Inc.).
In addition, the inhibitory rate (%) of the well added with the test compound (10 μM; containing 0.4% DMSO) was calculated, using the reaction rate of the well added only with 0.4% DMSO as 0% inhibitory rate, and the reaction rate of the well added with non-labeled glucagon (final concentration 1 μM) as 100% inhibitory rate.
As for `Cc1nn(Cc2ccccc2)cc1C(Nc1ccc(C(=O)NCCC(=O)O)cc1)C1CCCCC1` (stereo not drawn) [Example 41, 3-{[(4-{[(1-benzyl-3-methyl-1H-pyrazol-4-yl)(cyclohexyl)methyl]amino}phenyl)carbonyl]amino}propanoic acid], the IC50 (in general, the concentration at which inhibition is half-maximal) is 2300 nM.

The same assay, now with this note: test compound 10 μM; 0.4% DMSO = 0%, non-labeled glucagon 1 μM = 100%; read-out: inhibitory rate (%) at 10 μM.
For the compound `Cc1cc(F)ccc1-n1cc(C(Nc2ccc(C(=O)N(C)CCC(=O)O)cc2)C2CCCCC2)c(C)n1` (stereo not drawn) [Example 22, 3-[{[4-({[1-(4-fluoro-2-methylphenyl)-3-methyl-1H-pyrazol-4-yl](cyclohexyl)methyl}amino)phenyl]carbonyl}(methyl)amino]-propanoic acid], the inhibition at 10 µM turned out to be 61%.

Consider `COc1ccc(-n2cc(C(Nc3ccc(C(=O)NCCC(=O)O)cc3)C3CCCCC3)c(C)n2)cc1` (stereo not drawn) [Example 23, 3-({[4-({cyclohexyl[1-(4-methoxyphenyl)-3-methyl-1H-pyrazol-4-yl]methyl}amino)phenyl]carbonyl}amino)propanoic acid], for which the inhibition at 10 µM stood at 71%.

On to `COc1ccc(-n2cc(C(Nc3ccc(C(=O)N(C)CCC(=O)O)cc3)C3CCCCC3)c(C)n2)cc1` (stereo not drawn) [Example 24, 3-[{[4-({cyclohexyl[1-(4-methoxyphenyl)-3-methyl-1H-pyrazol-4-yl]methyl}amino)phenyl]carbonyl}(methyl)amino]propanoic acid], for which the inhibition at 10 µM came out at 73%.

In the case of `Cc1nn(-c2ccc(OC(F)(F)F)cc2)cc1C(Nc1ccc(C(=O)NCCC(=O)O)cc1)C1CCCCC1` (stereo not drawn) [Example 25, 3-[({4-[(cyclohexyl{3-methyl-1-[4-(trifluoromethoxy)phenyl]-1H-pyrazol-4-yl}methyl)amino]phenyl}carbonyl)amino]propanoic acid], the inhibition at 10 µM came out at 78%.

With `Cc1nn(-c2ccc(OC(F)(F)F)cc2)cc1C(Nc1ccc(C(=O)N(C)CCC(=O)O)cc1)C1CCCCC1` (stereo not drawn) [Example 26, 3-[({4-[(cyclohexyl{3-methyl-1-[4-(trifluoromethoxy)phenyl]-1H-pyrazol-4-yl}methyl)amino]phenyl}carbonyl)(methyl)amino]propanoic acid], the inhibition at 10 µM came out at 72%.

Regarding `Cc1nn(-c2ccc(C(F)(F)F)cc2)cc1C(Nc1ccc(C(=O)NCCC(=O)O)cc1)C1CCCCC1` (stereo not drawn) [Example 27, 3-[({4-[(cyclohexyl{3-methyl-1-[4-(trifluoromethyl)phenyl]-1H-pyrazol-4-yl}methyl)amino]phenyl}carbonyl)amino]propanoic acid], the inhibition at 10 µM stood at 70%.

Regarding `Cc1nn(-c2ccc(C(F)(F)F)cc2)cc1C(Nc1ccc(C(=O)N(C)CCC(=O)O)cc1)C1CCCCC1` (stereo not drawn) [Example 28, 3-[({4-[(cyclohexyl{3-methyl-1-[4-(trifluoromethyl)phenyl]-1H-pyrazol-4-yl}methyl)amino]phenyl}carbonyl)(methyl)amino]propanoic acid], the inhibition at 10 µM came out at 71%.

On to `COCc1nn(-c2ccc(C(F)(F)F)cn2)cc1C(Nc1ccc(C(=O)NCCC(=O)O)cc1)C1CCCCC1` (stereo not drawn) [Example 29, 3-[({4-[(cyclohexyl{3-(methoxymethyl)-1-[5-(trifluoromethyl)pyridin-2-yl]-1H-pyrazol-4-yl}methyl)amino]phenyl}carbonyl)amino]propanoic acid], for which the inhibition at 10 µM was 77%.

As to `COCc1nn(-c2ccc(C(F)(F)F)cn2)cc1C(Nc1ccc(C(=O)N(C)CCC(=O)O)cc1)C1CCCCC1` (stereo not drawn) [Example 30, 3-[({4-[(cyclohexyl{3-(methoxymethyl)-1-[5-(trifluoromethyl)pyridin-2-yl]-1H-pyrazol-4-yl}methyl)amino]phenyl}carbonyl)(methyl)amino]propanoic acid], the inhibition at 10 µM was found to be 75%.

Turning to `Cc1nn(-c2ncc(C(F)(F)F)cc2Cl)cc1C(Nc1ccc(C(=O)NCCC(=O)O)cc1)C1CCCCC1` (stereo not drawn) [Example 31, 3-{[(4-{[{1-[3-chloro-5-(trifluoromethyl)pyridin-2-yl]-3-methyl-1H-pyrazol-4-yl}(cyclohexyl)methyl]amino}phenyl)carbonyl]amino}propanoic acid], the inhibition at 10 µM stood at 67%.

On to `Cc1nn(-c2ncc(C(F)(F)F)cc2Cl)cc1C(Nc1ccc(C(=O)N(C)CCC(=O)O)cc1)C1CCCCC1` (stereo not drawn) [Example 32, 3-{[(4-{[{1-[3-chloro-5-(trifluoromethyl)pyridin-2-yl]-3-methyl-1H-pyrazol-4-yl}(cyclohexyl)methyl]amino}phenyl)carbonyl](methyl)amino}-propanoic acid], for which the inhibition at 10 µM was found to be 59%.

On to `COCc1nn(-c2ccc(OC(F)(F)F)cc2)cc1C(Nc1ccc(C(=O)NCCC(=O)O)cc1)C1CCCCC1` (stereo not drawn) [Example 33, 3-[({4-[(cyclohexyl{3-(methoxymethyl)-1-[4-(trifluoromethoxy)phenyl]-1H-pyrazol-4-yl}methyl)amino]phenyl}carbonyl)amino]propanoic acid], for which the inhibition at 10 µM was found to be 75%.

Consider `COCc1nn(-c2ccc(OC(F)(F)F)cc2)cc1C(Nc1ccc(C(=O)N(C)CCC(=O)O)cc1)C1CCCCC1` (stereo not drawn) [Example 34, 3-[({4-[(cyclohexyl{3-(methoxymethyl)-1-[4-(trifluoromethoxy)phenyl]-1H-pyrazol-4-yl}methyl)amino]phenyl}carbonyl)(methyl)amino]propanoic acid], for which the inhibition at 10 µM was determined as 79%.

As to `COCc1nn(-c2ccc(OC)cc2)cc1C(Nc1ccc(C(=O)NCCC(=O)O)cc1)C1CCCCC1` (stereo not drawn) [Example 35, 3-({[4-({cyclohexyl[3-(methoxymethyl)-1-(4-methoxyphenyl)-1H-pyrazol-4-yl]methyl}amino)phenyl]carbonyl}amino)propanoic acid], the inhibition at 10 µM amounted to 75%.

Regarding `COCc1nn(-c2ccc(OC)cc2)cc1C(Nc1ccc(C(=O)N(C)CCC(=O)O)cc1)C1CCCCC1` (stereo not drawn) [Example 36, 3-[{[4-({cyclohexyl[3-(methoxymethyl)-1-(4-methoxyphenyl)-1H-pyrazol-4-yl]methyl}amino)phenyl]carbonyl}(methyl)amino]propanoic acid], the inhibition at 10 µM worked out at 69%.

As for `COCc1nn(-c2ccccc2)cc1C(Nc1ccc(C(=O)NCCC(=O)O)cc1)C1CCCCC1` (stereo not drawn) [Example 37, 3-({[4-({cyclohexyl[3-(methoxymethyl)-1-phenyl-1H-pyrazol-4-yl]methyl}amino)phenyl]carbonyl}amino)propanoic acid], the inhibition at 10 µM worked out at 70%.

For the compound `COCc1nn(-c2ccccc2)cc1C(Nc1ccc(C(=O)N(C)CCC(=O)O)cc1)C1CCCCC1` (stereo not drawn) [Example 38, 3-[{[4-({cyclohexyl[3-(methoxymethyl)-1-phenyl-1H-pyrazol-4-yl]methyl}amino)phenyl]carbonyl}(methyl)amino]propanoic acid], the inhibition at 10 µM amounted to 53%.

Take `Cc1nn(Cc2ccccc2)cc1C(Nc1ccc(C(=O)NCCC(=O)O)cc1)C1CCCCC1` (stereo not drawn) [Example 41, 3-{[(4-{[(1-benzyl-3-methyl-1H-pyrazol-4-yl)(cyclohexyl)methyl]amino}phenyl)carbonyl]amino}propanoic acid]: the inhibition at 10 µM came to 60%.

For `CCC(C)(C)n1cc(C(Nc2ccc(C(=O)NCCC(=O)O)cc2)C2CCCCC2)c(C)n1` (stereo not drawn) [Example 43, 3-({[4-({cyclohexyl[1-(1,1-dimethylpropyl)-3-methyl-1H-pyrazol-4-yl]methyl}amino)phenyl]carbonyl}amino)propanoic acid], the inhibition at 10 µM worked out at 54%.

Regarding `COc1ccc(-n2cc(C(CC(C)C)Nc3ccc(C(=O)NCCC(=O)O)cc3)c(C3CC3)n2)cc1` (stereo not drawn) [Example 44, 3-({[4-({1-[3-cyclopropyl-1-(4-methoxyphenyl)-1H-pyrazol-4-yl]-3-methylbutyl}amino)phenyl]carbonyl}amino)propanoic acid], the inhibition at 10 µM is 69%.

Take `COc1ccc(-n2cc(C(CC(C)C)Nc3ccc(C(=O)N(C)CCC(=O)O)cc3)c(C3CC3)n2)cc1` (stereo not drawn) [Example 45, 3-[{[4-({1-[3-cyclopropyl-1-(4-methoxyphenyl)-1H-pyrazol-4-yl]-3-methylbutyl}amino)phenyl]carbonyl}(methyl)amino]propanoic acid]: the inhibition at 10 µM was 60%.

Take `COc1ccc(-n2cc(C(Nc3ccc(C(=O)NCCC(=O)O)cc3)C3CCCCC3)c(C3CC3)n2)cc1` (stereo not drawn) [Example 46, 3-({[4-({cyclohexyl[3-cyclopropyl-1-(4-methoxyphenyl)-1H-pyrazol-4-yl]methyl}amino)phenyl]carbonyl}amino)propanoic acid]: the inhibition at 10 µM is 71%.

As for `COc1ccc(-n2cc(C(Nc3ccc(C(=O)N(C)CCC(=O)O)cc3)C3CCCCC3)c(C3CC3)n2)cc1` (stereo not drawn) [Example 47, 3-[{[4-({cyclohexyl[3-cyclopropyl-1-(4-methoxyphenyl)-1H-pyrazol-4-yl]methyl}amino)phenyl]carbonyl}(methyl)amino]propanoic acid], the inhibition at 10 µM worked out at 66%.
